Experiment [1] concerns post-oligaemic rats. Kind of experiment: One-trial passive avoidance task (retention of conditioned response). The format is in vivo, Sprague-Dawley (Iffa Credo) male rats. Here is the method: (§1) The study was conducted with a view to assessing the therapeutical effect of ST 687 administered i.p. to rats immediately after the effect of a transient forebrain oligohaemia in the experiment animals were detected. In particular, the propensity of post-oligaemic rats to develop conditioning was studied in a one-trial passive avoidance task. Concurrently, the neurologic deficit during a 3-day period following the ischaemic insult was assessed, and finally the extent of the oedema was assessed by measuring the water content of the cerebral tissue.
(§2) In the experiments Sprague-Dawley (Iffa Credo) male rats weighing 230-250 g were used, that had been caged (5 rats/cage) under conditions of controlled temperature (22°C±1°C), 50% relative humidity and 12-hours dark-light cycle (light on from 8 a.m. to 8 p.m.). The rats were fed UAR (Epinay Orge, France) laboratory chow and had free access to tap water. The rats were caged for 5 days before surgery.
(§3) Under light ether anesthesia, carotid arteries were isolated and loosely surrounded by a thread. Twenty-four hours later, reversible incomplete forebrain ischemia was produced by bilateral common carotid artery occlusion combined with sodium nitroprusside-induced arterial hypotension (1.1 mg/rat s.c.). Mean arterial blood pressure (MABP) was lowered and maintained nearby 6.6 kPa for 45 min. Then it gruadually returned to normal within the 60th minute when carotid occlusion was removed.
The functional aspects of the cerebral ischemic injury were assessed by a one trial learning procedure (passive avoidance reaction) as originally described by Kurtz K. H. e Pearl J.: The effects of prior fear experience in acquired drive learning. J. Comp. Physiol, Psychol, 1960, 53 : 201-206, and more extensively developed by Buresova et al.: Effect of atropine on learning, extinction, retention and retrieval in rats. Psychopharmacologia, 1964, 5 : 255-263.
Four hours after clipping-off untreated post-oligaemic rats were placed into an apparatus consisting of a large illuminated compartment (40 x 40 cm) connected by an opening to a small dark compartment (10 x 10 cm) with an electrified grid floor. The animals placed into the large compartment were allowed to explore the apparatus for three minutes. The latency to enter and the time spent in the small compartment were measured with a stop watch. Habituation to the experimental conditions was repeated 24 and 29 hours after ischemia. At the end of the third habituation trial, the opening between the two compartments was closed and the rat, placed into the small compartment, received intermittent electrical foot-shocks for one minute. The retention of the passive avoidance towards the small compartment was tested 24 and 48 hours after the last habituation trial i.e. 53 and 77 hours post-oligohaemia, respectively. The criterion used to determine whether an animal was conditioned was based upon the rat remaining in the large illuminated compartment for 180 sec. without entry into the small dark compartment.

Experiment [2] deals with post-oligaemic rats. As to the kind of experiment: Cerebral oedema upon brain excision 77 hours post-oligohaemia. The following applies: survivors. The format is in vivo, Sprague-Dawley (Iffa Credo) male rats. Here is the method:
as §1, §2, §3
Immediately after the last retention trial, i.e. 77 hours post-oligohaemia, rats were sacrificed by decapitation, their brains rapidly removed and macroscopically examined in terms of swelling. Brain water content was determined by the method wet weight/dry weight.

Experiment [3] deals with post-oligaemic rats. Kind of experiment: Death rate after transient forebrain oligohaemia. Format: in vivo, Sprague-Dawley (Iffa Credo) male rats. Here is the method:
as §1, §2, §3

Experiment [4] relates to acetaminophen (paracetamol)-induced hepatic damage. As to the kind of experiment: Protection against acetaminophen (paracetamol)-induced hepatic damage, serum transaminases. Format: in vivo, Male Wistar rats. The following applies: SGOT and SGPT in blood serum; 101 mg/kg body weight orally 1, 8 and 24 hours after paracetamol 1 g/kg per os; sacrifice at 32 hours; with respect to the control animals. Here is the method: Male Wistar rats weighing 200-250 g (15 rats/group) that had been keept fasting for at least 12 hours, were administered a single dose of paracetamol (1 g/kg body weight, per os). 100 g paracetamol were dissolved in 1000 ml of 5% (w/v) carboxymethylcellulose suspension in water. […] 101 mg ST 784/kg body weight were administered orally (as aqueous solution) 1, 8 and 24 hours, respectively, following paracetamol administration. The animals were sacrificed 32 hours following paracetamol administration.
Transaminases (SGOT and SGPT) were measured in blood serum. ST 784 provoked a decrease in transaminases exceding 60% ([…]) with respect to the control animals.

Consider 3 compounds from patent publication EP0443996B1, “Esters of (R)(-)-carnitine and acyl (R)(-)-carnitines with beta-hydroxybutyric acid and pharmaceutical compositions containing them for inhibiting neuronal degeneration, liver proteolysis and for the treatment of coma” (Sigma-Tau Industrie Farmaceutiche Riunite S.p.A., priority 1990, dated 1991).

A value given as a limit tells only on which side of the number the result lay.

Regarding “ester of isovaleryl (R)(-)-carnitine chloride with (R,S)(±)-beta-hydroxybutyric acid [ST 687]”, the “Incidence of retention of conditioned response (%)” value was 20,0% in the experiment on post-oligaemic rats [1] (2,5 mg. kg i.p. twice a day, + 53 h); 40,0% in the experiment with post-oligaemic rats [1] (2,5 mg. kg i.p. twice a day, + 77 h); 60,0% in the experiment on post-oligaemic rats [1] (5,0 mg. kg i.p. twice a day, + 53 h); 60,0% in the experiment on post-oligaemic rats [1] (5,0 mg. kg i.p. twice a day, + 77 h); 53,3% in the experiment with post-oligaemic rats [1] (7,5 mg. kg i.p. twice a day, + 53 h); 66,7% with post-oligaemic rats [1] (7,5 mg. kg i.p. twice a day, + 77 h). Also, the “Incidence of cerebral oedema upon excision (3)” value with post-oligaemic rats [2] (2,5 mg. kg i.p. twice a day) is 80,0; with post-oligaemic rats [2] (5,0 mg. kg i.p. twice a day), 50,0; in the experiment with post-oligaemic rats [2] (7,5 mg. kg i.p. twice a day), 66,7. Moreover, the “Death rate after 72 hours (%)” value with post-oligaemic rats [3] (2,5 mg. kg i.p. twice a day) is 47,4%; with post-oligaemic rats [3] (5,0 mg. kg i.p. twice a day), 37,5%; in the experiment with post-oligaemic rats [3] (7,5 mg. kg i.p. twice a day) it was 62,5%.
With `CC(=O)O[C@H](CC(=O)[O-])C[N+](C)(C)C` [Acetyl (R)(-)-carni-tine, acetyl (R)(-)-carnitine, reference compound], the “Incidence of retention of conditioned response (%)” value with post-oligaemic rats [1] (12,5 mg. kg i.p. twice a day, + 53 h) is 80,0%; with post-oligaemic rats [1] (12,5 mg. kg i.p. twice a day, + 77 h) it was 80,0%; with post-oligaemic rats [1] (25,0 mg. kg i.p. twice a day, + 53 h) it was 60,0%; in the experiment with post-oligaemic rats [1] (25,0 mg. kg i.p. twice a day, + 77 h) it was 70,0%; in the experiment with post-oligaemic rats [1] (50,0 mg. kg i.p. twice a day, + 53 h), 70,0%; in the experiment on post-oligaemic rats [1] (50,0 mg. kg i.p. twice a day, + 77 h), 50,0%. In addition, the results for the “Incidence of cerebral oedema upon excision (3)” value in the experiment on post-oligaemic rats [2] (12,5 mg. kg i.p. twice a day), in the experiment on post-oligaemic rats [2] (25,0 mg. kg i.p. twice a day) and in the experiment with post-oligaemic rats [2] (50,0 mg. kg i.p. twice a day) were 80,0, 60,0 and 90,0, respectively. Besides, the “Death rate after 72 hours (%)” value in the experiment on post-oligaemic rats [3] (12,5 mg. kg i.p. twice a day) is recorded as 33,3%; in the experiment with post-oligaemic rats [3] (25,0 mg. kg i.p. twice a day), 41,2%; with post-oligaemic rats [3] (50,0 mg. kg i.p. twice a day), 50,0%.
For `CC(CC(=O)O)OC(=O)CC(O)C[N+](C)(C)C` (racemic) [ST 784, ester of R(-)-carnitine chloride with R,S(±)beta-hydroxybutyric acid], in experiment [4], the decrease in transaminases is listed as greater than 60%.
